Key:
[1] = Clinical study (PK study): relative bioavailability and PK profile of estradiol after wafers vs oral tablet and intranasal spray; assay type: in vivo, healthy postmenopausal women; details: female, human
Description: Finally, it is the present inventors' experience that the serum estradiol values are somewhat dependent on the applied laboratory assay.
The following not-dose-normalised data, where all parameters are expressed in percentage of the respective Aerodiol® values, were obtained:
Estradiol may be determined by two different assays:
The analytes and their deuterated internal standards are extracted from 1.00 ml of human serum using BondElut Certify® solid-phase cartridges. Estradiol and estrone are eluted from the solid phase cartridges with ethyl acetate. The analytes undergo three separate derivatisation steps: (1) reaction with pentafluorobenzoyl chloride, (2) reaction with O-(2,3,4,5,6-pentafluorobenzyl)-hydroxylamine hydrochloride, and (3) reaction with MSTFA. The derivatised analytes are then separated by gas chromatography using a DB-17 fused silica capillary column and detected by tandem mass spectrometry using negative ion chemical ionization. A 1/(concentration)^2 weighted least-squares regression procedure is used to fit a linear function to the calibration data.
A 500 μl sample aliquot is fortified with 25 μl of internal standard working solution. Analytes are isolated through liquid-liquid extraction with 5.0 ml of 10:90 (v/v) ethyl acetate/hexane. The solvent is evaporated under a stream of nitrogen at 40-50° C. and the remaining residue is derivatizsd. The derivatised analytes are extracted into 3.0 m of 10:90 (v/v) ethyl acetate/hexane, the solvent is evaporated, and the remaining residue is reconstituted with 150 μl acetonitrile and 200 μl water. The final extract is analyzed via high-performance liquid chromatography with tandem mass spectrometry detection.

[2] = Kuhnt et al.; cited from earlier work
[3] = intranasal, cited from earlier work

bioavailability ([1]; in vivo) | bioavailability, usually ([1]; in vivo) | Cmax ([1]; serum, 90 ug) | SMILES | bioavailability after oral administration [2] | time until pre-treatment level is reached ([3]; after administration) | time to maximum plasma levels [3]
30-60% | 30-50% |  | CCCCC(=O)O[C@H]1CC[C@H]2[C@@H]3CCc4cc(O)ccc4[C@H]3CC[C@]12C [estradiol valerate] |  |  | 
 |  | 0.5 to 0.8 ng/mL | C[C@]12CC[C@@H]3c4ccc(O)cc4CC[C@H]3[C@@H]1CC[C@@H]2O [estradiol] | about 5% | about 12 hours | 10 to 30 min
